Results from US12187740B2, “Polymorphic forms of bictegravir potassium” (HONOUR LAB LIMITED, priority 2021, dated 2025).

Test: Storage stability test of crystalline Form HN1 (PXRD, HPLC purity, Karl Fischer water content)
Format: physicochemical
Parameters: Water: unit not given here
Settings: for Purity: HPLC; for Water: Karl Fischer
Method: X-ray powder diffraction spectrum was measured on a BRUKER axs D8 advance X-ray powder diffractometer having a copper-Ka radiation. Approximately 1 gm of sample was gently flattered on a sample holder and scanned from 2 to 50 degrees two-theta, at 0.02 degrees two theta per step and a step time of 10.8 seconds. The sample was simply placed on the sample holder. The sample was rotated at 30 rpm at a voltage 40 KV and current […].
In another aspect of the present invention Bictegravir potassium crystalline Form HN1 is stable at 5±3° C. and 25±2° C./60±5% RH (Relative humidity) and has the following stability data:
The stability of samples was tested by PXRD, HPLC and water content was measured by Karl Fischer method.

[1] = storage 25 ± 2° C./RH 60 ± 5%, 1st month
[2] = storage 25 ± 2° C./RH 60 ± 5%, 3rd month
[3] = storage 25 ± 2° C./RH 60 ± 5%, 6th month
[4] = storage 25 ± 2° C./RH 60 ± 5%, Initial
[5] = at 5±3° C. and 25±2° C./60±5% RH

`O=C(NCc1c(F)cc(F)cc1F)c1cn2c(c([O-])c1=O)C(=O)N1[C@H]3CC[C@H](C3)O[C@@H]1C2.[K+]` [Form HN1, Bictegravir potassium] gave a Purity (storage 5 ± 3° C., 1st month) of 99.87, a Purity (storage 5 ± 3° C., 3rd month) of 99.81 and a Purity (storage 5 ± 3° C., 6th month) of 99.81. For the same compound, the Purity (storage 5 ± 3° C., Initial) was 99.88, the Purity [1] was 99.87 and the Purity [2] was 99.80. The Purity [3] was 99.81, the Purity [4] was 99.88 and the Water (storage 5 ± 3° C., 1st month) was 2.8. The Water (storage 5 ± 3° C., 3rd month) was 2.8, the Water (storage 5 ± 3° C., 6th month) was 2.8 and the Water (storage 5 ± 3° C., Initial) was 2.2. It also gave a Water [1] of 2.8, a Water [2] of 2.9 and a Water [3] of 2.8. For the same compound, the Water [4] was 2.2, the “change in PXRD pattern after storage” value [5] was “no change” and the “change in water content after storage” value [5] was “no change”. For the same compound, the “decrease in purity after storage” value [5] was “no significant decrease”, the “stability on storage (overall)” value [5] was “physically and chemically stable” and the PXRD (storage 5 ± 3° C., 1st month) was “Form HN1”. For the same compound, the PXRD (storage 5 ± 3° C., 3rd month) was “Form HN1”, the PXRD (storage 5 ± 3° C., 6th month) was “Form HN1” and the PXRD (storage 5 ± 3° C., Initial) was “Form HN1”. The PXRD [1] was “Form HN1”, the PXRD [2] was “Form HN1” and the PXRD [3] was “Form HN1”. The PXRD [4] was “Form HN1”.
